Assay results as given in US20260130928A1, “COMBINATION OF AKR1C3 ACTIVATED ANTICANCER PRODRUG COMPOUND AND ANALGESIC DRUG FOR TREATING CANCER PATIENTS ACCOMPANIED BY PAIN” (ASCENTAWITS PHARMACEUTICALS, LTD., priority 2022, published 2026).
Read-outs that look alike come from different tables or passages of the source.

Test system: H460 cell line
Assay: In vitro cell proliferation inhibition with the drug combination (CTG method)
Format: cell-based, human
Settings: for IC50: Homo sapiens
Method: • a) H460 cells (human non-small lung cancer cells, AKR1C3 enzyme highly expressed) were cultured in RPMI-1640 medium, added with 10% FBS and 1% double antibody, and placed at 37° C. and 5% CO2 for culturing.
• a) The cells were routinely cultured until the cell saturation was 80%-90%, and when the required quantity was reached, the cells were collected. • b) The cells were resuspended with the corresponding medium and cell counts were performed to prepare a cell suspension with appropriate density. • c) The cell suspension was added to a 96-well plate with 100 μL per well, and the cell density was 2,000 cells per well. • d) The cells were incubated overnight in an incubator at 37° C. with 5% CO2. 1.1.3 Treating Cells with Compound (72 Hours)
AST-3424 alone: after 24 hours of cell seeding, AST-3424 was administered alone. Specifically, each well was supplemented with 99 μL of growth medium, and then added with 1 μL of the prepared AST-3424 solution to form different concentrations of AST-3424. The plate was shaken gently to ensure uniform mixing, and placed in an incubator at 37° C. with 5% CO2.
The cell plates were placed in the incubator for 72 hours.
1.1.4 Treating Cells with Compound (2 Hours) • a) Administrating single drug: after 24 hours of cell seeding, AST-3424 was administered alone. Specifically, each well was supplemented with 99 μL of growth medium, and then added with 1 μL of the prepared AST-3424 solution to form different concentrations of AST-3424. The plate was shaken gently to ensure uniform mixing, and placed in the incubator for 2 hours. […] The plate was shaken gently to ensure uniform mixing. After the plate was placed in the incubator for 2 hours, 1 μL of the prepared AST-3424 solution was added to form different concentrations of AST-3424. The plate was shaken gently to ensure uniform mixing, and placed in the incubator at 37° C. with 5% CO2 for another 2 hours. Then, the supernatant was discarded, and the remainder was washed twice with growth medium and added with 200 μL of fresh medium.
1.1.6 Detecting with CTG Method • a) The cell plate to be tested was placed at room temperature to equilibrium for 30 minutes, and 100 μL of culture medium was discarded from each well. • b) 25 μL CTG reagent (CelltiterGlo kit) was added to each well. The plate was placed on a fast shaker to shake for 2 minutes, and then placed at room temperature away from light for 30 minutes. • c) The chemiluminescent signal value was read with multifunctional microplate reader at reading time of 1000 ms.
IC50 was calculated with GraphPad Prism 5 software, and the IC50 (half maximal inhibitory concentration) of the compound was obtained using the following nonlinear fitting formula: […]

C[C@H](OP(=O)(N1CC1)N1CC1)c1ccc([N+](=O)[O-])c(Oc2cccc(C(=O)N(C)C)c2)c1 [AST-3424]
IC50 (NCI-H460, AST-3424 alone, read-out: IC50(nM) -TH-3021): 0.97 nM
IC50 (NCI-H460, read-out: IC50(nM) +3 μM TH-3021, +3 μM TH-3021 (2 h pre-incubation, then 2 h with AST-3424)): 360 nM
Inhibition factor (IC50 +3 μM TH-3021 vs AST-3424 alone): 371.65
